From ChEMBL document CHEMBL6071206, “Development of BODIPY FL SNS 032 as a Versatile Probe for Constitutive Androstane Receptor and Multiple Kinases” (ACS Med Chem Lett, 2024)
The source made the active and inactive calls. The calls are words filed in the database; no cut-off is given here.

Key:
[1] = biological target: T1, Nuclear receptor subfamily 1 group I member 3 (Homo sapiens, UniProt Q14994); assay: Inhibition of GST-tagged human CAR LBD incubated for 90 mins by TR-FRET assay
T1 sequence (Q14994 whole entry): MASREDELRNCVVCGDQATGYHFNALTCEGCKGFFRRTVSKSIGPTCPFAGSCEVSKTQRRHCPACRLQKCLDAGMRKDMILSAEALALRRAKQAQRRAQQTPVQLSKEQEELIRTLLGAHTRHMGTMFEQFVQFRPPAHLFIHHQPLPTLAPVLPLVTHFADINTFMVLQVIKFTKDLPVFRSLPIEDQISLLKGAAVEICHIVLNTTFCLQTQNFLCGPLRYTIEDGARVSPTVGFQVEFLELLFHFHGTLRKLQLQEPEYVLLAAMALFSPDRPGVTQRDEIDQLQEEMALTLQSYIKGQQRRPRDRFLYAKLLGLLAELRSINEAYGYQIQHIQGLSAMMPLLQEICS

[2] = biological target: T2, Glycogen synthase kinase-3 alpha (Homo sapiens, UniProt P49840); assay: Inhibition of GST-tagged human GSK3A incubated for 90 mins by TR-FRET assay
T2 sequence (P49840 whole entry): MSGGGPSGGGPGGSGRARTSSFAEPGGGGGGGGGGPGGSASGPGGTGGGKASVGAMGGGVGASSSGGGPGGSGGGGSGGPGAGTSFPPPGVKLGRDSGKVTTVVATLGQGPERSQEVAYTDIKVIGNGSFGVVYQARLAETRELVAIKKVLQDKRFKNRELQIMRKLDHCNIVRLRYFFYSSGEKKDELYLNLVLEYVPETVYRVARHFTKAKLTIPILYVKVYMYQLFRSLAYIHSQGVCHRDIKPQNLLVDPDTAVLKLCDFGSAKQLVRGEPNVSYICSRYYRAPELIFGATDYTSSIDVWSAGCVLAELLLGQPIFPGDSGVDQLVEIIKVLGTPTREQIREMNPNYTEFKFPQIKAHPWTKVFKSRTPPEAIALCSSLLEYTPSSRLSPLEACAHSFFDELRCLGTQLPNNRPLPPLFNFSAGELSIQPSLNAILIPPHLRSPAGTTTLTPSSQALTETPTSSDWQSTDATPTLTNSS

[3] = biological target: T3, Mitogen-activated protein kinase 15 (Homo sapiens, UniProt Q8TD08); assay: Inhibition of Flag/His-tagged human MAPK15 incubated for 90 mins by TR-FRET assay
T3 sequence (Q8TD08 whole entry): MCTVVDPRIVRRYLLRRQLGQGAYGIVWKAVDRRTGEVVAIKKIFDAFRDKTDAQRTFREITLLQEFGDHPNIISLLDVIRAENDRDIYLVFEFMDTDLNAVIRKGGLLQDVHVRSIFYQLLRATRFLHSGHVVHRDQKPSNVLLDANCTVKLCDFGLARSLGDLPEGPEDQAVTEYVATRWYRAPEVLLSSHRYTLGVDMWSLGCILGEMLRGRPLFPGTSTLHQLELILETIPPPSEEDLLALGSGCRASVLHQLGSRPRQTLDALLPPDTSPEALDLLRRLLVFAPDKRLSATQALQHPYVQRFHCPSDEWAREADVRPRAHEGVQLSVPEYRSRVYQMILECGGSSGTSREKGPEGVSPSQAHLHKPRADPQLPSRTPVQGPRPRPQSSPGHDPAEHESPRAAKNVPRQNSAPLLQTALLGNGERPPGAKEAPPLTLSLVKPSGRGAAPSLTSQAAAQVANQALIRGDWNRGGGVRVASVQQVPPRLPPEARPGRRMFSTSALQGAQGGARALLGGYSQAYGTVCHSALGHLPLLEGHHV

[4] = biological target: T4, Calcium/calmodulin-dependent protein kinase kinase 2 (Homo sapiens, UniProt Q96RR4); assay: Inhibition of GST-tagged human CAMKK2 incubated for 90 mins by TR-FRET assay
T4 sequence (Q96RR4 whole entry): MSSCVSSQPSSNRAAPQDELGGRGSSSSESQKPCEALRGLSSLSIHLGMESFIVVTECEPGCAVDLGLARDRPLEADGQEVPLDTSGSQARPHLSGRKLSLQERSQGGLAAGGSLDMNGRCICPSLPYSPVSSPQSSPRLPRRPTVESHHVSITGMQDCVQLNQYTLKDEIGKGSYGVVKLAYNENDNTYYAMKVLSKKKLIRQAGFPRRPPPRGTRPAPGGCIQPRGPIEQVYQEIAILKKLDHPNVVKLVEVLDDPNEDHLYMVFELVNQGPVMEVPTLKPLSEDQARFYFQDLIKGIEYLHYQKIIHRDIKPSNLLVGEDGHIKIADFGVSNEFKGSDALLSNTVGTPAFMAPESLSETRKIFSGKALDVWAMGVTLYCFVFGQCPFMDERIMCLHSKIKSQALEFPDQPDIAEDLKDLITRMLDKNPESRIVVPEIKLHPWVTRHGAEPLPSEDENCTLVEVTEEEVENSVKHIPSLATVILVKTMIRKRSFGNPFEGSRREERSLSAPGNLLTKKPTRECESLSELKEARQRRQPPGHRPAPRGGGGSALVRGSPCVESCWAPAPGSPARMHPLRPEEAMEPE

[5] = biological target: T5, Peripheral plasma membrane protein CASK (Homo sapiens) (UniProt O14936); assay: Inhibition of GST-tagged human CASK at 90 uM incubated for 90 mins by TR-FRET assay relative to control
T5 sequence (whole entry): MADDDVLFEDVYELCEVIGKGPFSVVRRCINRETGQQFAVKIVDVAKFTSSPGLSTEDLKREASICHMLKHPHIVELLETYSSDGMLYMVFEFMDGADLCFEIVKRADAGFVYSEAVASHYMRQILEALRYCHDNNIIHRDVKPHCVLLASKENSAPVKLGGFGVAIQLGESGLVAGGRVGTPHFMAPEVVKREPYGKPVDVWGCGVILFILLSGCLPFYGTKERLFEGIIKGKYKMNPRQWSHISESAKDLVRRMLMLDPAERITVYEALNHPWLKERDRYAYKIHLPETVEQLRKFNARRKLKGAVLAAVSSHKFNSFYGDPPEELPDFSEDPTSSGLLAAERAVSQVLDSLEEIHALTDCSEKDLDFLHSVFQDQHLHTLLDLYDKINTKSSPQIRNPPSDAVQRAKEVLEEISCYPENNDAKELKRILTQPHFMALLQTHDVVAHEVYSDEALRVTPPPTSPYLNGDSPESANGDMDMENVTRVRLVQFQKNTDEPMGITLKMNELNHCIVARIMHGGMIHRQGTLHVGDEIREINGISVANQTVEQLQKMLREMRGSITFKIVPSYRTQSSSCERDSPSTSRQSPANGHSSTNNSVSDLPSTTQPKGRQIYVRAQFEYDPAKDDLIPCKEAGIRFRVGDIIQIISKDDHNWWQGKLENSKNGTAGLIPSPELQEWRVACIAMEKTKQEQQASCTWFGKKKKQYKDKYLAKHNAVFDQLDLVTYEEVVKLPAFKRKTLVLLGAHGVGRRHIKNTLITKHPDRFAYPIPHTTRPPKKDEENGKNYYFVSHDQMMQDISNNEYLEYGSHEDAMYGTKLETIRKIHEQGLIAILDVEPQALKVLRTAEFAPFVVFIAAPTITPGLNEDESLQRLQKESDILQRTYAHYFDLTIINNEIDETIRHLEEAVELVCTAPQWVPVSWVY

[6] = biological target: T1, Nuclear receptor subfamily 1 group I member 3; assay: Inhibition of GST-tagged human CAR LBD at 100 uM incubated for 90 mins in presence of Cy5-PGC1-alpha by HTRF co-activator assay relative to control; settings: 1.5 h, read-out: Imax
[7] = biological target: T1, Nuclear receptor subfamily 1 group I member 3; assay: Inhibition of GST-tagged human CAR LBD incubated for 90 mins in presence of Cy5-PGC1-alpha by HTRF co-activator assay
[8] = biological target: T1, Nuclear receptor subfamily 1 group I member 3; assay: Inhibition of GST-tagged human CAR LBD at […] incubated for 90 mins in presence of Cy5-PGC1-alpha by HTRF co-activator assay relative to control; settings: 1.5 h, dose 3.3 µM, read-out: Imax
[9] = biological target: T2, Glycogen synthase kinase-3 alpha; assay: Binding affinity to GST-tagged human GSK3A assessed as dissociation constant incubated for 90 mins by TR-FRET assay
[10] = biological target: T1, Nuclear receptor subfamily 1 group I member 3; assay: Binding affinity to GST-tagged human CAR LBD assessed as dissociation constant incubated for 90 mins by TR-FRET assay
[11] = biological target: T6, Dual specificity tyrosine-phosphorylation-regulated kinase 2 (Homo sapiens) (UniProt Q92630); assay: Binding affinity to GST-tagged human DYRK2 incubated for 90 mins by TR-FRET assay
T6 sequence (whole entry): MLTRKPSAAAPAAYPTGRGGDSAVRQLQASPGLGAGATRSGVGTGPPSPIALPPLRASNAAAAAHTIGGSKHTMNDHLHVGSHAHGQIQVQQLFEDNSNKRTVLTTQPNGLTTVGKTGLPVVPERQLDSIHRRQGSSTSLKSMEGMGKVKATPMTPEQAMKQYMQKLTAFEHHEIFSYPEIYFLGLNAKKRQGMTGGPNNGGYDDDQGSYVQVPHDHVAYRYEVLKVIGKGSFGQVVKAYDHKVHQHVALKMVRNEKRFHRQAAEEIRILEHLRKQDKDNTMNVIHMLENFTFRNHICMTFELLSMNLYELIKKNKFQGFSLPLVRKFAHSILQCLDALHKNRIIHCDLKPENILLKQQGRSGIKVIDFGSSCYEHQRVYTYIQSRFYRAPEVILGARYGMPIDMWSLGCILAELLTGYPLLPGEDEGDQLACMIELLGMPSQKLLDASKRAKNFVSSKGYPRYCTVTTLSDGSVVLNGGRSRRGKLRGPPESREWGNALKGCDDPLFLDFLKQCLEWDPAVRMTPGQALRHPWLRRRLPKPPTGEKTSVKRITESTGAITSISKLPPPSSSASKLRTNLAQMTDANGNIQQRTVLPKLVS

[12] = biological target: T1, Nuclear receptor subfamily 1 group I member 3; assay: Binding affinity to GST-tagged human CAR LBD assessed as fold change in FRET signal at 125 nM incubated for 90 mins by TR-FRET assay relative to control; settings: 1.5 h, 0.125 µM
[13] = biological target: T1, Nuclear receptor subfamily 1 group I member 3; assay: Binding affinity to GST-tagged human CAR LBD assessed as fold change in FRET signal at 298.2 nM incubated for 90 mins by TR-FRET assay relative to control; settings: 1.5 h, 0.2982 µM
[14] = biological target: T7, Peripheral plasma membrane protein CASK (Homo sapiens, UniProt O14936); assay: Binding affinity to GST-tagged human CASK assessed as dissociation constant incubated for 90 mins by TR-FRET assay
T7 sequence (O14936 whole entry): T5 sequence (whole entry)

[15] = biological target: T3, Mitogen-activated protein kinase 15; assay: Binding affinity to Flag/His-tagged human MAPK15 assessed as dissociation constant incubated for 90 mins by TR-FRET assay
CDK9/cyclin T1 = CDK9/cyclin T1 (Homo sapiens, UniProt P50750); assay: Binding affinity to His-tagged human CDK9/CycT1 assessed as dissociation constant incubated for 90 mins by TR-FRET assay; assay type: protein-complex assay
CDK9/cyclin T1, sequence (O60563 whole entry): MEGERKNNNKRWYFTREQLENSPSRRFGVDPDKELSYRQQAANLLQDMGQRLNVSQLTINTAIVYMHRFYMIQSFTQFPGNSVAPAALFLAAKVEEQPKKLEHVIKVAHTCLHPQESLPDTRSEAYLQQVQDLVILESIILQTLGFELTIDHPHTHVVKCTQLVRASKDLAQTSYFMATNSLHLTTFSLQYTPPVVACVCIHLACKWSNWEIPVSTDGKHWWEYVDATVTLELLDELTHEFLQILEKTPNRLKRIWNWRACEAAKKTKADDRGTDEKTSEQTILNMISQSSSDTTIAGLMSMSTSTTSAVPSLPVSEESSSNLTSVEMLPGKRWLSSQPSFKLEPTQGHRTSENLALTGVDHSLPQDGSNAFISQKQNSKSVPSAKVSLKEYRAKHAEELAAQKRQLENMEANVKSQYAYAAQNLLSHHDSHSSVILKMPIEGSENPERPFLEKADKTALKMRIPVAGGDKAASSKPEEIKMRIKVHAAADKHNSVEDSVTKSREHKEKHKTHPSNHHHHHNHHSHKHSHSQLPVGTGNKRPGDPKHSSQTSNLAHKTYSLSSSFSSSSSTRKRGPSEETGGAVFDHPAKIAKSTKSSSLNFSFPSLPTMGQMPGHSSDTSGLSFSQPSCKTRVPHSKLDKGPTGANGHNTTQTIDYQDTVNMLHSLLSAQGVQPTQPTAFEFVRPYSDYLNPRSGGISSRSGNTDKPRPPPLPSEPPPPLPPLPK
CDK9/cyclin T1, sequence (P50750 whole entry): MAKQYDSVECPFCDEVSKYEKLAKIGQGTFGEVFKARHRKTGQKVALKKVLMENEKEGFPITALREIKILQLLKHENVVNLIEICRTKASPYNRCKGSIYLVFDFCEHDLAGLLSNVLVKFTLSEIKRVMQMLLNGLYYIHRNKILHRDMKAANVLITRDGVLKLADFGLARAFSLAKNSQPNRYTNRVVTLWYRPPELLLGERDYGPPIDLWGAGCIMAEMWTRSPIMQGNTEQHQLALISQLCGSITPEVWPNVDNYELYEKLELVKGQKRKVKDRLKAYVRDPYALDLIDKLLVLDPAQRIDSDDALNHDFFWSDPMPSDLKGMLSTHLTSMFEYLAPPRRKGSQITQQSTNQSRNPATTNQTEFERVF

[16] = biological target: T4, Calcium/calmodulin-dependent protein kinase kinase 2; assay: Binding affinity to GST-tagged human CAMKK2 assessed as dissociation constant incubated for 90 mins by TR-FRET assay
[17] = biological target: T1, Nuclear receptor subfamily 1 group I member 3; assay: Inhibition of GST-tagged human CAR LBD at 30 uM incubated for 90 mins in presence of Cy5-PGC1-alpha by HTRF co-activator assay relative to control; settings: 1.5 h, read-out: Imax

| IC50 [1] [nM] | IC50 [2] [nM] | IC50 [4] [nM] | IC50 [7] [nM] | Structure (SMILES) | IC50 [3] [nM] | other results |
| --- | --- | --- | --- | --- | --- | --- |
| 12.8 | – | – | – | O=C(Nc1ccc2c(c1)N(C(=O)Cn1cccc1)c1ccccc1CC2)OC1CCCCC1 | – | – |
| – | 270 | 6500 | – | CN1CC[C@@H](c2c(O)cc(O)c3c(=O)cc(-c4ccccc4Cl)oc23)[C@@H]1CO | 706 | – |
| – | 29.1 | 1200 | – | COc1cc(F)ccc1-c1ncnc(Nc2cccc(C[S@](C)(=N)=O)c2)n1 [ATUVECICLIB] | 2600 | inhibition [5]: 27.3% |
| – | – | – | 224 | Cc1cc(C)n2c1C=C1C=CC(CCC(=O)N3CCC(C(=O)Nc4ncc(SCc5ncc(C(C)(C)C)o5)s4)CC3)=[N+]1[B-]2(F)F | – | inhibition at […] [8]: 95.9%; Kd [9]: 4.5 nM; Kd [10]: 300 nM; Activity [11]: inactive; fold change (FC) [12]: 9.7; fold change (FC) [13]: 9.1; Kd [14]: 550 nM; Kd [15]: 340 nM; Kd (CDK9/cyclin T1): 5.1 nM; Kd [16]: 530 nM |
| 162 | – | – | 258 | CCOC(=O)Nc1ccc2c(c1)N(C(=O)CN(CC)CC)c1ccccc1CC2 | – | inhibition at 30 µM [17]: 100% |

| Structure (SMILES) | IC50 [1] [nM] | IC50 [2] [nM] | IC50 [4] [nM] | IC50 [7] [nM] | IC50 [3] [nM] | other results |
| --- | --- | --- | --- | --- | --- | --- |
| CC[C@H](Nc1nc(NCc2cnc(C)cc2C)c2ncn(C(C)C)c2n1)[C@@H](C)O [CYC-065] | – | 11100 | 13200 | – | 386 | – |
| C[C@]12CC[C@@H](O)C[C@@H]1CC[C@@H]1[C@@H]2CC[C@]2(C)C=CC[C@@H]12 [ANDROSTENOL] | 339 | – | – | 250 | – | inhibition at 100 µM [6]: 84.7% |
